In ChEMBL document CHEMBL1201862, “PubChem BioAssay data set” (2004):
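Briefly, cells in 96-well plates were exposed to five compound concentrations for 48 h, and endpoints were estimated by linear interpolation. Abbreviation: GI50, concentration required for 50% inhibition of growth.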 Active and inactive are the calls of the source. Rule as the data show it: active = GI50 up to about 1.1 µM and inactive = higher.

Tests used:
Experiment in all cases: inhibition of tumour cell growth, NCI panel, 48 h
NCI-H522 = test system: NCI-H522
MOLT-4 = test system: MOLT-4
OVCAR-8 = test system: OVCAR-8
Malme-3M = test system: Malme-3M
SNB-75 = test system: SNB-75
HCC 2998 = test system: HCC 2998
HOP-92 = test system: HOP-92
SK-OV-3 = test system: SK-OV-3
ACHN = test system: ACHN
UO-31 = test system: UO-31
RXF 631 = test system: RXF 631
TK-10 = test system: TK-10
DMS-114 = test system: DMS-114
HOP-62 = test system: HOP-62
SF-268 = test system: SF-268
786-0 = test system: 786-0
COLO 205 = test system: COLO 205
RPMI-8226 = test system: RPMI-8226
HT-29 = test system: HT-29
LXFL 529 = test system: LXFL 529
K562 = test system: K562
EKVX = test system: EKVX
A498 = test system: A498
HOP-18 = test system: HOP-18
M14 = test system: M14
SF-539 = test system: SF-539
CCRF-CEM = test system: CCRF-CEM
NCI-H23 = test system: NCI-H23
SK-MEL-5 = test system: SK-MEL-5
SK-MEL-2 = test system: SK-MEL-2
KM-20L2 = test system: KM-20L2
SNB-19 = test system: SNB-19
DLD-1 = test system: DLD-1
SW-620 = test system: SW-620
SR = test system: SR
HCT-15 = test system: HCT-15
KM12 = test system: KM12
SK-MEL-28 = test system: SK-MEL-28
UACC-62 = test system: UACC-62
XF498 = test system: XF498
SF-295 = test system: SF-295
UACC-257 = test system: UACC-257
HL-60 = test system: HL-60
A549 = test system: A549
M19-MEL = test system: M19-MEL
RXF 393 = test system: RXF 393
IGROV-1 = test system: IGROV-1
LOX IMVI = test system: LOX IMVI
U-251 = test system: U-251
NCI-H226 = test system: NCI-H226
CAKI-1 = test system: CAKI-1
OVCAR-4 = test system: OVCAR-4
NCI-H460 = test system: NCI-H460
OVCAR-3 = test system: OVCAR-3
DMS-273 = test system: DMS-273
HCT-116 = test system: HCT-116
OVCAR-5 = test system: OVCAR-5
SN12C = test system: SN12C

**Q.** Which results are given for `Cc1ccc(CCNC(=S)SCC(NC(=O)CCC(N)C(=O)O)C(=O)NCC(=O)O)cc1` (stereo not drawn)?
**A.** GI50 (NCI-H522): 327 nM (active); GI50 (MOLT-4): 1230 nM (inactive); GI50 (OVCAR-8): 2000 nM (inactive); GI50 (Malme-3M): 2010 nM (inactive); GI50 (SNB-75): 435 nM (active); GI50 (HCC 2998): 2040 nM (inactive); GI50 (HOP-92): 1170 nM (inactive); GI50 (SK-OV-3): 7400 nM (inactive); GI50 (ACHN): 2020 nM (inactive); GI50 (UO-31): 1120 nM (inactive); GI50 (RXF 631): 2200 nM (inactive); GI50 (TK-10): 2840 nM (inactive); GI50 (DMS-114): 873 nM (active); GI50 (HOP-62): 2960 nM (inactive); GI50 (SF-268): 2700 nM (inactive); GI50 (786-0): 385 nM (active); GI50 (COLO 205): 2510 nM (inactive); GI50 (RPMI-8226): 288 nM (active); GI50 (HT-29): 1460 nM (inactive); GI50 (LXFL 529): 750 nM (active); GI50 (K562): 398 nM (active); GI50 (EKVX): 6190 nM (inactive); GI50 (A498): 2030 nM (inactive); GI50 (HOP-18): 2520 nM (inactive); GI50 (M14): 1220 nM (inactive); GI50 (SF-539): 1480 nM (inactive); GI50 (CCRF-CEM): 442 nM (active); GI50 (NCI-H23): 2600 nM (inactive); GI50 (SK-MEL-5): 1730 nM (inactive); GI50 (SK-MEL-2): 385 nM (active); GI50 (KM-20L2): 2120 nM (inactive); GI50 (SNB-19): 2170 nM (inactive); GI50 (DLD-1): 764 nM (active); GI50 (SW-620): 767 nM (active); GI50 (SR): 2130 nM (inactive); GI50 (HCT-15): 1430 nM; GI50 (KM12): 533 nM (active); GI50 (SK-MEL-28): 2750 nM (inactive); GI50 (UACC-62): 1410 nM (inactive); GI50 (XF498): 1490 nM (inactive); GI50 (SF-295): 2810 nM (inactive); GI50 (UACC-257): 1990 nM (inactive); GI50 (HL-60): 510 nM (active); GI50 (A549): 3570 nM (inactive); GI50 (M19-MEL): 1700 nM (inactive); GI50 (RXF 393): 718 nM (active); GI50 (IGROV-1): 2110 nM (inactive); GI50 (LOX IMVI): 388 nM (active); GI50 (U-251): 1870 nM (inactive); GI50 (NCI-H226): 2260 nM (inactive); GI50 (CAKI-1): 1410 nM (inactive); GI50 (OVCAR-4): 2990 nM (inactive); GI50 (NCI-H460): 2610 nM (inactive); GI50 (OVCAR-3): 2170 nM (inactive); GI50 (DMS-273): 414 nM (active); GI50 (HCT-116): 2170 nM (inactive); GI50 (OVCAR-5): 2510 nM (inactive); GI50 (SN12C): 1760 nM (inactive)
